Legend:
Type in all cases: cell-based, human
[1] = test system: primary cells of esophageal squamous carcinoma; assay: Effects of concentrations of the added factors or small molecule compounds on proliferation (Example 7); details: for proliferation promoting effect when added to No. 7 medium: 10 μM, 3 μM, 1 μM, 0.3 μM, 0.1 μM, control No. 7 medium; for concentration at which the cell proliferation effect is most significant: added to No. 7 medium lacking this factor
Protocol: According to the same process as in Example 1, endoscopic tissue Sample 65, Sample 66, Sample 67, Sample 68 and Sample 69 were isolated to obtain primary cells of esophageal squamous carcinoma, and the obtained primary cells of esophageal squamous carcinoma were cultured by using No. 7 medium of Example 1. The resultants were inoculated into 12-well plate at a living cell density of 1×10^4/cm^2 (45,000 cells per well), and then the plate was added with NIH-3T3 cells that have been irradiated by γ-ray (irradiation dose 35Gy) at a cell density of 2×10^4/cm^2, which were then fully mixed. After surface disinfection, the plate was placed in a 37° C., 5% CO2 incubator (Thermo Fisher) for culture. When the cells expended to cover 85% of the plate, the 12-well plate was taken out, rinsed with 200 μL 0.25% trypsin (Gibco) for 1 minute. The liquid was removed by sucking, and 500 μL 0.05% trypsin (Gibco) was added to each well again. The resultant was placed in a 37° C., 5% CO2 incubator to react for 10 minutes, and the digestion can be terminated until it can be observed under the microscope (EVOS […], Invitrogen) that the cells have been completely digested. After being centrifuged at 1500 rpm for 4 minutes, the supernatant was discarded, and 1 mL of basic culture medium was added for resuspension. The total number of cells was obtained by counting with a flow imaging counter (JIMBIO FIL, Jiangsu Jimbio Technology Co., Ltd.). The obtained cells were used for the following cultivation experiments. The digested cell suspension was diluted with the above Formulations 1-8 and No. 7 medium in Example 1 respectively, and were seeded into a 24-well plate with 20,000 cells and 500 μL volume per well. When using the medium of Formulation 1, five concentration gradients of N2 additives with the final concentration of 1:400, 1:200, 1:100, 1:50 and 1:25 were prepared, respectively, and the prepared N2 additives were added respectively to a 24-well plate inoculated with primary cells, with 500 μL per well; the medium of Formulation 1 was used as the control hole (BC). When using the medium of Formulation 2, five concentration gradients of non-essential amino acids with the final concentration of 400 μM, 200 μM, 100 μM, 50 μM, 25 μM were prepared, respectively, and the prepared non-essential amino acids were added respectively to a 24-well plate inoculated with primary cells, with 500 μL per well; the medium of Formulation 2 was used as the control hole (BC). When using the medium of Formulation 3, five concentration gradients of glutamine with the final concentration of 8 mM, 4 mM, 2 mM, 1 mM, 0.5 mM were prepared, respectively, and the prepared glutamine were added respectively to a 24-well plate inoculated with primary cells, with 500 μL per well; the medium of Formulation 3 was used as the control hole (BC). When using the medium of Formulation 4, five concentration gradients of insulin with the final concentration of 40 μg/mL, 20 μg/mL, 10 μg/mL, 5 μg/mL, 2.5 μg/mL were prepared, respectively, and the prepared insulin were added respectively to a 24-well plate inoculated with primary cells, with 500 μL per well; the medium of Formulation 4 was used as the control hole (BC). When using the medium of Formulation 5, five concentration gradients of insulin-like growth factor 1 (IGF1) with the final concentration of 40 ng/mL, 20 ng/mL, 10 ng/mL, 5 ng/mL, 2.5 ng/mL were prepared, respectively, and the prepared insulin-like growth factor 1 (IGF1) were added respectively to a 24-well plate inoculated with primary cells, with 500 μL per well; the medium of Formulation 5 was used as the control hole (BC). […]

[2] = test system: primary cells of esophageal squamous carcinoma; assay: Effect of a single factor added to the basic culture medium on proliferation (Example 2); details: Sample 57, 7th day; BM = DMEM/F12 + 10 μM Y27632 + 100 mg/mL Primocin; factor at its No. 7 medium concentration
Protocol: To the basic culture mediums of Example 1 (DMEM/F12 medium+10 μM Y27632+100 mg/mL Primocin) were separatedly added 1:50 ratio of N2 additive, 20 μg/mL insulin, 7 μg/mL bovine pituitary extract, 2 mM glutamine, 400 μM non-essential amino acids, 0.4 μg/mL hydrocortisone, 5 ng/mL insulin-like growth factor 1, respectively, to prepare the culture mediums of this Example. According to the same process as in Example 1, endoscopic tissue Sample 57, Sample 58, Sample 59, Sample 60 and Sample 61 were isolated to obtain primary cells of esophageal squamous carcinoma, and the obtained primary cells of esophageal squamous carcinoma were cultured by using the respective culture mediums prepared in this Example, as well as BM medium and No. 7 medium (EM) of Example 1. The resultants were inoculated into 48-well plate at a living cell density of 1×10^4/cm^2 (10,000 cells per well), and then the plate was added with NIH-3T3 cells that have been irradiated by γ-ray (irradiation dose 35Gy) at a cell density of 2×10^4/cm^2, which were then fully mixed. After surface disinfection, the plate was placed in a 37° C., 5% CO2 incubator (Thermo Fisher) for culture. On the 7th day of culture, the 48-well plate was taken out, rinsed with 200 μL 0.25% trypsin (Gibco) for 1 minute. The liquid was removed by sucking, and 500 μL 0.05% trypsin (Gibco) was added to each well again. The resultant was placed in a 37° C., 5% CO2 incubator to react for 10 minutes, and the digestion can be terminated until it can be observed under the microscope (EVOS […], Invitrogen) that the cells have been completely digested. After being centrifuged at 1500 rpm for 4 minutes, the supernatant was discarded, and 1 mL of basic culture medium was added for resuspension. The total number of cells was obtained by counting with a flow imaging counter (JIMBIO FIL, Jiangsu Jimbio Technology Co., Ltd.). The effect of combination of two factors in the culture medium for primary cells of esophageal squamous carcinoma on the proliferation of primary cells of esophageal squamous carcinoma was evaluated. The results obtained from primary cells of esophageal squamous carcinoma isolated from endoscopic tissue Sample 57 are shown in FIG. 2.

[3] = test system: primary cells of esophageal squamous carcinoma; assay: Effect of adding other factors to EM medium on proliferation (Example 3); details: Sample 62, 10 ng/ml factor added to No. 7 medium (EM), cultured for 7 days
Protocol: To No. 7 mediums (EM) of Example 1 were separately added 10 ng/ml fibroblast growth factor 2 (FGF2), 10 ng/ml fibroblast growth factor 10 (FGF10), 10 ng/ml fibroblast growth factor 7 (FGF7) or the combination of 10 ng/ml FGF2, 10 ng/ml FGF10 and 10 ng/ml FGF7, respectively, to prepare the mediums of this Example.
According to the same process as in Example 1, endoscopic tissue Sample 62 and Sample 63 were isolated to obtain primary cells of esophageal squamous carcinoma, and the obtained primary cells of esophageal squamous carcinoma were cultured by using the respective culture mediums prepared in this Example, as well as No. 7 medium (EM) of Example 1. The resultants were inoculated into 48-well plate with at a cell density of 1×10^4/cm^2 (10,000 cells per well), and then the plate was added with NIH-3T3 cells that have been irradiated by γ-ray (irradiation dose 35Gy) at a cell density of 2×10^4/cm^2, which were then fully mixed. After surface disinfection, the plate was placed in a 37° C., 5% CO2 incubator (Thermo Fisher) for culture. On the 7th day of culture, the 48-well plate was taken out, rinsed with 200 μL 0.25% trypsin (Gibco) for 1 minute. The liquid was removed by sucking, and 500 μL 0.05% trypsin (Gibco) was added to each well again. The resultant was placed in a 37° C., 5% CO2 incubator to react for 10 minutes, and the digestion can be terminated until it can be observed under the microscope (EVOS M500, Invitrogen) that the cells have been completely digested. After being centrifuged at 1500 rpm for 4 minutes, the supernatant was discarded, and 1 mL of No. 7 medium (EM) was added for resuspension. The total number of cells was obtained by counting with a flow imaging counter (JIMBIO FIL, Jiangsu Jimbio Technology Co., Ltd.). The effect of adding other factors to the culture medium for primary cells of esophageal squamous carcinoma of the invention on the proliferation of primary cells of esophageal squamous carcinoma was evaluated. […]

## Cc1cccc(-c2nn(C(=S)Nc3ccccc3)cc2-c2ccnc3ccccc23)n1 [A83-01]
[1]
  proliferation promoting effect when added to No. 7 medium: do not show significant proliferation promoting effect

## Cc1c[nH]c(-c2cnc(NCCNc3ccc(C#N)cn3)nc2-c2ccc(Cl)cc2Cl)n1 [CHIR99021]
[1]
  proliferation promoting effect when added to No. 7 medium: do not show significant proliferation promoting effect

## C[C@H](NC(=O)Cc1cc(F)cc(F)c1)C(=O)N[C@H](C(=O)OC(C)(C)C)c1ccccc1 [DAPT]
[1]
  proliferation promoting effect when added to No. 7 medium: do not show significant proliferation promoting effect

## CC(C)Oc1ccc(-c2cnc3c(-c4ccnc5ccccc45)cnn3c2)cc1 [DMH-1]
[1]
  proliferation promoting effect when added to No. 7 medium: do not show significant proliferation promoting effect

## Cc1ccc2nc(NC(=O)CSc3nc4c(c(=O)n3-c3ccccc3)SCC4)sc2c1 [IWP2]
[1]
  proliferation promoting effect when added to No. 7 medium: do not show significant proliferation promoting effect

## c1ccc2c(-c3cnn4cc(-c5ccc(N6CCNCC6)cc5)cnc34)ccnc2c1 [LDN193189]
[1]
  proliferation promoting effect when added to No. 7 medium: do not show significant proliferation promoting effect

## NC(=O)c1ccc(-c2nc(-c3ccc4c(c3)OCO4)c(-c3ccccn3)[nH]2)cc1 [SB431542]
[1]
  proliferation promoting effect when added to No. 7 medium: do not show significant proliferation promoting effect

## C[C@@H](N)[C@H]1CC[C@H](C(=O)Nc2ccncc2)CC1 [Y27632]
[1]; five concentration gradients
  concentration at which the cell proliferation effect is most significant: 10 µM

## NC(=O)CC[C@H](N)C(=O)O [glutamine]
[1]; tested 0.5-8 mM
  concentration at which the cell proliferation effect is most significant: 2000 µM
[2]
  cell proliferation efficiency when one factor is added to the basic culture medium: better than that of the basic culture medium, but was not as good as that of the No. 7 medium (EM)

## C[C@]12CCC(=O)C=C1CC[C@@H]1[C@@H]2[C@@H](O)C[C@@]2(C)[C@H]1CC[C@]2(O)C(=O)CO [hydrocortisone]
[1]; five concentration gradients
  concentration at which the cell proliferation effect is most significant: 400 ng/mL
[2]
  cell proliferation efficiency when one factor is added to the basic culture medium: better than that of the basic culture medium, but was not as good as that of the No. 7 medium (EM)

## FGF2: fibroblast growth factor 2
[3]
  effect on proliferation as compared with EM medium (ratio of cell numbers): no significant effect for promoting proliferation

## insulin
[1]; five concentration gradients
  concentration at which the cell proliferation effect is most significant: 20 ng/mL
[2]
  cell proliferation efficiency when one factor is added to the basic culture medium: better than that of the basic culture medium, but was not as good as that of the No. 7 medium (EM)

## insulin-like growth factor 1: insulin-like growth factor 1 (IGF-1, Sino Biological)
[1]; five concentration gradients
  concentration at which the cell proliferation effect is most significant: 5 ng/mL
[2]
  cell proliferation efficiency when one factor is added to the basic culture medium: better than that of the basic culture medium, but was not as good as that of the No. 7 medium (EM)

B1: FGF10: fibroblast growth factor 10 (protein, UniProt O15520 38-208, looked up)
Fibroblast growth factor 10: QALGQDMVSPEATNSSSSSFSSPSSAGRHVRSYNHLQGDVRWRKLFSFTKYFLKIEKNGKVSGTKKENCPYSILEITSVEIGVVAVKAINSNYYLAMNKKGKLYGSKEFNNDCKLKERIEENGYNTYASFNWQHNGRQMYVALNGKGAPRRGQKTRRKNTSAHFLPMVVHS
[3]
  effect on proliferation as compared with EM medium (ratio of cell numbers): no significant effect for promoting proliferation

B2: FGF7: fibroblast growth factor 7 (protein, UniProt P21781 32-194, looked up)
Fibroblast growth factor 7: CNDMTPEQMATNVNCSSPERHTRSYDYMEGGDIRVRRLFCRTQWYLRIDKRGKVKGTQEMKNNYNIMEIRTVAVGIVAIKGVESEFYLAMNKEGKLYAKKECNEDCNFKELILENHYNTYASAKWTHNGGEMFVALNQKGIPVRGKKTKKEQKTAHFLPMAIT
[3]
  effect on proliferation as compared with EM medium (ratio of cell numbers): inhibited

From patent US20230091960A1, “CULTURE MEDIUM FOR PRIMARY CELLS OF ESOPHAGEAL SQUAMOUS CARCINOMA, AND CULTIVATION METHOD THEREFOR” (PRECEDO PHARMACEUTICALS CO., LTD, priority 2020, published 2023)
